Source: patent US10745370B2, “Farnesyl transferase inhibitors and uses thereof” (MACKAY MEMORIAL HOSPITAL, priority 2016, dated 2020)
“And” between values parts separate entries of the source, which are not always exact repeats. Identical values can stand only once. “Also recorded” adds a separate entry of the source.

Assays:
[1] = molecular target: T1, rat PFTase (Rattus norvegicus, UniProt Q02293+Q04631); experiment: Inhibition of farnesyl transferase (fluorescence assay); assay type: biochemical; details: mean ± SD of three independent experiments
T1 construct: purchased Jena Biosciences
Protocol: The assay was carried out in 384-well microplates with a final volume of 20 μl by the method modified from the previous report (Long et al., 2009). Briefly, 10 nM of rat PFTase (Jena Biosciences, Jena, Germany) was incubated with the tested compound or DMSO (1%) for 15 min, and then the mixture was added in a solution (50 mM Tris-HCl, pH 7.5, 5 mM MgCl2, 5 mM DTT, 0.1 mM ZnCl2, 0.2% octyl-β-D-glucopyranoside (Sigma, St. Louis, Mo.), 10 μM PFTase substrate dansyl-Gly-Cys-Val-Leu-Ser-OH, and 10 μM farnesyl pyrophosphate (Sigma, St. Louis, Mo.)) to initiate the reaction. The reaction was incubated at 37° C. for 30 min, and the fluorescence was detected by a M5 plate reader (Molecular Devices, CA, USA) at 340 nm excitation and 505 nm emission.

[2] = test system: macrophages; experiment: Trypan blue exclusion test on macrophages; assay type: cell-based; details: trypan blue analysis, FIG. 2
Protocol: (§1) Mononuclear cells (MNCs) were separated from the peripheral blood of healthy donors obtained with written consent by use of Ficoll-Hypaque density centrifugation, followed by positive selection with magnetic anti-CD14 microbeads.
(§2) The isolated CD14^+ cells were cultivated in Minimum Essential Medium (MEM medium) supplemented with 10% fetal bovine serum (FBS), 100 ng/ml granulocyte-macrophage colony-stimulating factor (GM-CSF, Gentaur), and 50 ng/ml interleukin-4 (IL-4, R&D), and kept in an environment of 37° C. with 5% CO2/95% air.
(§3) To evaluate the effects of the present compound on dendritic cells, the CD14^+ cells were respectively treated with 10 μM of test compound (i.e., Mib-5, Mib-6, Mib-7, Mib-8, Mib-9, and Mib-10) on day 1. Then, on day 3, the cultured medium in each well was replenished by adding half the volume of the cultured medium containing the same treatment as indicated above. Then, on day 6, a cytokine cocktail containing IL-1, IL-6, and tumor necrosis factor-α (TNF-α) was added to induce maturation. On day 7, the differentiated dendritic cells were collected and subjected to further assays, including viability assay, morphology observation, and cell marker staining.
(§4) As to the effects of the present compound on macrophages, the CD14^+ cells were cultivated and treated as indicated above except the addition of cytokine cocktail on day 6. The macrophages were collected on day 6 and subjected to further assays, including viability assay, trypan blue exclusion test, morphology observation, cell marker staining, and phagocytotic activity analysis.
The dye exclusion test is used to determine the number of viable cells present in a cell suspension. […] In this test, the cells were first treated with a test compound (i.e., Mib-5, 6, 7, 8, 9 or 10) for a certain period of time (e.g., 72 hours), then the cells were harvested and re-suspended in suitable buffer solution. The cell suspension was then mixed with trypan blue dye and then visually examined to determine whether cells had taken up or excluded the dye. A viable cell will have a clear cytoplasm, whereas a nonviable cell will have a blue cytoplasm. The concentration required to reduce viability by 50% (IC50) after 72 hours was extrapolated from the dose-response curves by different concentrations of the test compound using a second-order polynomial regression model and analyzing with SigmaPlot Software (Systat Software Inc., San Jose, Calif.).

[3] = test system: macrophages; experiment: Cell marker expression on macrophages (total), flow cytometry; assay type: cell-based, human; details: for total expressed level of CD14: FIG. 3; for level of CD206: FIG. 5; for total level of CD80: compared with the control
Protocol: as §1, §2, §3, §4
(§5) The expression of various types of cell markers, such as CD14, CD206, and CD80 expressed on the surface of macrophages, and CD1a, CD14, CD83, and HLA-DR expressed on the dendritic cells, were respectively detected by fluorescein isothiocyanate (FITC) and phycoerythrin (PE)-conjugated monoclonal antibodies in FACS caliber flowcytometer. Monoclonal antibodies used in this examples included anti-CD14 (IgG-FITC), anti-CD206 (IgG-FITC), anti-CD80-PE, anti-CD1a-PE, anti-CD83-PE and anti-human leukocyte antigen (HLA)-DR-PE. Results were analyzed by CellQuest software.

[4] = test system: M1 macrophages; experiment: Cell marker expression on M1 macrophages, flow cytometry; assay type: cell-based, human; details: for CD14: M1 population after treatment: Table 5; for CD80: change in M1 population: Table 6; for CD206: change in M1: Table 7; for CD206 expression on M1 macrophages: control 14.27%; for CD80 expression on M1 macrophages: control 71.34%; for CD14 expression on M1 macrophages: control 99.83%
Protocol: (§6) M1 differentiation of freshly isolated CD14^+ cells was induced by the addition of lipopolysaccharide (LPS), while M2 differentiation of freshly isolated CD14^+ cells was induced by the addition of IL-4. Then, the present compounds (e.g., Mib-5, 6, 7, 8, 9, or 10) were added at the indicated dosages. 6 days later, the population of the differentiated macrophages were then determined by cell viability analysis.
as §5

[5] = test system: M2 macrophages; experiment: Cell marker expression on M2 macrophages, flow cytometry; assay type: cell-based, human; details: for CD14: M2 population after treatment: Table 5; for CD80: change in M2 population: Table 6; for CD206: change in M2: Table 7; for CD80 expression on M2 macrophages: control 47.64%; for CD14 expression on M2 macrophages: control 55.66%; for CD206 expression on M2 macrophages: control 74.49%
Protocol: as §6, §5

[6] = test system: dendritic cells; experiment: Morphology of dendritic cells by Liu's staining; assay type: cell-based, human; details: 10 μM, seven days, FIG. 8
Protocol: as §1, §2, §3
Cells were transferred to a glass coverslide and covered with solution A (0.5 g of methylene blue and 1.7 g of Eosin yellow dissolved in 1,000 ml of ethanol). After 45 seconds, solution B (1.3 g of azure, 1.4 g of methylene blue, 23.38 g of Na2HPO4, 6.5 g of KH2PO4, dissolved in 1,000 ml of distilled water) was added in the proportion of 2 parts of B to 1 part of A. Mixed the solutions well by blowing the surface. The slide was left standing for 90 seconds and then washed off the staining solution rapidly by running water. The morphology of stained cells was then examined under microscope.
In this example, the effects of the present compounds on dendritic cells were investigated. Briefly, the dendritic cells were respectively treated with 10 μM of Mib-5, Mib-6, Mib-7, Mib-8, or Mib-10. Seven days later, the cells were harvested and subjected to analysis of morphology observation, cell viability, and/or cell marker expression.

Row | SMILES | IC50 [1] | cell viability / cytotoxicity toward macrophages [2] | total expressed level of CD14 [3] | level of CD206 [3] | total level of CD80 [3] | CD14: M1 population after treatment [4] | CD80: change in M1 population [4] | CD206: change in M1 [4] | CD206 expression on M1 macrophages [4] [%] | CD80 expression on M1 macrophages [4] [%] | CD14 expression on M1 macrophages [4] [%] | CD14: M2 population after treatment [5] | CD80: change in M2 population [5] | CD206: change in M2 [5] | CD80 expression on M2 macrophages [5] [%] | CD14 expression on M2 macrophages [5] [%] | CD206 expression on M2 macrophages [5] [%] | dendritic cell morphology compared with control group [6]
1 | COC1=CC(=O)[C@@]2(c3cc(=O)c4ccc(OC)cc4o3)[C@H](C[C@]3(C)[C@@H](C(=O)O)CC=C4[C@H]3CCCC4(C)C)C(C)=CC[C@H]2C1=O [Mib-5] | < 10 µM and 7.51 µM | did not adversely affect cell viability; also recorded: no significant cytotoxicity | not affected | increase | significantly reduced | remained relatively unchanged | reduction | significant decrease | 5.41 | 11.94 | 97.03 | significant decrease | increase | increase | 53.03 | 80.33 | 78.77 | cell death reflected in morphology changes, and less dendritic process
2 | COC1=CC(=O)[C@@]2(c3cc(=O)c4c(O)cc(O)cc4o3)[C@H](C[C@]3(C)[C@@H](C(=O)O)CC=C4[C@H]3CCCC4(C)C)C(C)=CC[C@H]2C1=O [Mib-7] | < 10 µM and 8.46 µM | did not adversely affect cell viability; also recorded: no significant cytotoxicity | not affected | increase | significantly reduced | remained relatively unchanged | reduction | significant decrease | 4.9 | 23.04 | 98.66 | significant decrease | increase | increase | 49.58 | 89.76 | 88.88 | cell death reflected in morphology changes, and less dendritic process
